Assay results taken from patent publication US8846627B2, “Method for treatment of malaria” (The Second Military Medical University, priority 2009, dated 2014).

System: Plasmodium berghei (chloroquine sensitive strain)
Assay: In vivo anti-malarial activity, 4-day suppressive test in infected mice
Conditions: Swiss albino mice; for Day 4 % Suppression / Day 5 % Suppression / Day 6 % Suppression: intragastric
Protocol: Tests were performed in a 4-day suppressive standard test using the methods of David, Thurston and Peters (David, A. F., Philip, J. R., Simon, L. C., Reto B., and Solomon N. Antimalarial drug discovery: Efficacy models for compound screening. Nature Reviews. 2004; 3: 509-520). The plasmodium species, that is most widely employed in rodent malaria parasite-Plasmodium berghei (chloroquine sensitive strain), was used to infect Swiss albino mice for a fourday suppressive test. The P. berghei was subsequently maintained in the laboratory by serial blood passage from mouse to mouse. For the study, a donor mouse with a rising parasitemia of 20% was sacrificed and its blood was collected in a slightly heparinized syringe from the auxiliary vessels. The blood was diluted with Trisodium Citrate (TC) medium so that each 0.2 ml contained approximately 107 infected red cells. Each animal received inoculums of about […], which is expected to produce a steadily rising infection in mice.
Male Swiss albino mice were used. The mice were allowed to acclimatize to the laboratory environment under a controlled temperature of 20° C. and at optimum humidity for at least three days before being subjected to the experiments. All of the mice were divided into groups of six, and infected with malaria parasites.
The infection of the recipient mice was initiated by needle passage of the above mentioned parasite preparation, from the donor to healthy test animals via an intraperitoneal route. Therefore, P. berghei infected red blood cells were intraperitoneally injected into the mice from the blood diluted with TC medium so that each 0.2 ml had approximately 106-107 infected red cells (parasite per kg of body weight). Each mouse was infected with single inoculums of 0.2 ml blood.
The 4-day procedures were started on Mondays while blood smears for parasitemia were collected on Fridays. The infected mice were weighed, randomly divided into treatment, vehicle and standard drug groups. […] The compounds were administered through intra gastric route using the stomach tube to ensure the safe ingestion of the compounds and the vehicle.
Thin smears of blood films were obtained from the peripheral blood on the tail from each mouse on day four after infection. The smears were placed on microscopic slides, fixed with methanol and stained with Gemsa at pH 7.2, for parasitemia. […] The number of parasitized erythrocytes in each of the 10-50 such fields were counted three times and the average was calculated to give the Parasitemia of each individual animal. Percentage of suppression was calculated by using the following formula. % Suppression=(Parasitemia in negative control−Parasitemia in study group)/Parasitemia in negative control

O=C(/C=C/c1ccc(O)cc1)OC[C@H]1O[C@@H](Oc2c(-c3ccc(O)cc3)oc3cc(O)cc(O)c3c2=O)[C@H](O)[C@@H](O)[C@@H]1O [Tiliroside]
Day 4 % Suppression (10 mg/kg daily for 4 days): 39.1%
Day 5 % Suppression (10 mg/kg daily for 4 days): 51.5%
Day 6 % Suppression (10 mg/kg daily for 4 days): 35.1%
Day 4 % Suppression (50 mg/kg daily for 4 days): 56.5%
Day 5 % Suppression (50 mg/kg daily for 4 days): 64.0%
Day 6 % Suppression (50 mg/kg daily for 4 days): 54.0%
Day 4 % Suppression (100 mg/kg daily for 4 days): 34.7%
Day 5 % Suppression (100 mg/kg daily for 4 days): 39.3%
Day 6 % Suppression (100 mg/kg daily for 4 days): 21.6%
Day 4 % Suppression (200 mg/kg daily for 4 days): 21.7%
Day 5 % Suppression (200 mg/kg daily for 4 days): 30.3%
Day 6 % Suppression (200 mg/kg daily for 4 days): 18.9%
Day 5 % Suppression (400 mg/kg daily for 4 days): 9.0%
maximum suppression ratio (maximum over doses and days): 60%
